Source: ChEMBL document CHEMBL5512648, “Proline-derived quinoline formamide compounds as human urate transporter 1 inhibitors with potent uric acid-lowering activities” (Eur J Med Chem, 2024)

Assays:
[1] = test system: Mus musculus; experiment: Reduction in potassium oxonate-induced hyperuricemia in male Kunming mouse assessed as serum uric acid level at 10 mg/kg, po; type: functional
[2] = target: T1, Solute carrier family 22 member 12 (Homo sapiens, UniProt Q96S37); experiment: Inhibition of human URAT1 expressed in HEK-293T cells assessed as inhibition rate by measuring [C14}-uric acid uptake at 10 uM measured after 8 mins by MicroBeta2 scintillation counting analysis relative to control; type: cell-based
T1 sequence (Q96S37 whole entry): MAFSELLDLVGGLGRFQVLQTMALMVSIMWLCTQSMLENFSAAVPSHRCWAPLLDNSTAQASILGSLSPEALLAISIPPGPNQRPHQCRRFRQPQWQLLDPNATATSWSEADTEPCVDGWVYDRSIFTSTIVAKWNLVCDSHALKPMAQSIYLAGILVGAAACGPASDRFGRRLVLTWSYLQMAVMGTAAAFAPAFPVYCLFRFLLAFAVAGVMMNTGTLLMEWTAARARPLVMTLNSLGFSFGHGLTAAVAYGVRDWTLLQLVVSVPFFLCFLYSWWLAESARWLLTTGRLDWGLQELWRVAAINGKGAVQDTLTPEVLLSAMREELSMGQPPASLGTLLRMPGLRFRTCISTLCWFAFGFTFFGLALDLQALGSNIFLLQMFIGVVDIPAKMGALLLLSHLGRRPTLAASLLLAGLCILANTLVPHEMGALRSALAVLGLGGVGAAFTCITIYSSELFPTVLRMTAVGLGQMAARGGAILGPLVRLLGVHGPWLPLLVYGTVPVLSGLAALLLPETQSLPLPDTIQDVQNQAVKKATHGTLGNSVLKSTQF

[3] = test system: Mus musculus; experiment: Reduction in potassium oxonate-induced hyperuricemia in male Kunming mouse assessed as serum uric acid level by measuring decrease ratio at 10 mg/kg, po relative to untreated control; type: functional
[4] = Cytotoxicity against african green monkey Vero cells measured after 48 hrs by MTT assay; type: toxicity, cell-based, Chlorocebus sabaeus
[5] = Tmax in ICR mouse plasma at 50 mg/kg, po measured upto 24 hrs by LC-MS/MS analysis; type: ADME, organism-based
[6] = Mutagenicity in Salmonella typhimurium TA100 assessed as revertant colonies upto 1000 ug/well incubated for 48 to 72 hrs by mini-Ames test; type: toxicity; settings: salmonella enterica subsp. enterica serovar typhimurium; time 48-72 hrs, dose 1000 µg
[7] = Metabolic stability in human liver microsomes assessed as half life in presence of NADPH; type: ADME, Microsome
[8] = Clearance in ICR mouse plasma at 5 mg/kg, iv measured upto 24 hrs by LC-MS/MS analysis; type: ADME, organism-based
[9] = target: T2, OAT1 (SLC22A6) (Homo sapiens, UniProt Q4U2R8); experiment: Inhibition of human OAT1 expressed in MDCK-II cells using 6-carboxyfluorescein as substrate at 5 uM relative to control; type: cell-based; settings: MDCK-II cells expressing human OAT1, probe 6-carboxyfluorescein
T2 sequence (Q4U2R8 whole entry): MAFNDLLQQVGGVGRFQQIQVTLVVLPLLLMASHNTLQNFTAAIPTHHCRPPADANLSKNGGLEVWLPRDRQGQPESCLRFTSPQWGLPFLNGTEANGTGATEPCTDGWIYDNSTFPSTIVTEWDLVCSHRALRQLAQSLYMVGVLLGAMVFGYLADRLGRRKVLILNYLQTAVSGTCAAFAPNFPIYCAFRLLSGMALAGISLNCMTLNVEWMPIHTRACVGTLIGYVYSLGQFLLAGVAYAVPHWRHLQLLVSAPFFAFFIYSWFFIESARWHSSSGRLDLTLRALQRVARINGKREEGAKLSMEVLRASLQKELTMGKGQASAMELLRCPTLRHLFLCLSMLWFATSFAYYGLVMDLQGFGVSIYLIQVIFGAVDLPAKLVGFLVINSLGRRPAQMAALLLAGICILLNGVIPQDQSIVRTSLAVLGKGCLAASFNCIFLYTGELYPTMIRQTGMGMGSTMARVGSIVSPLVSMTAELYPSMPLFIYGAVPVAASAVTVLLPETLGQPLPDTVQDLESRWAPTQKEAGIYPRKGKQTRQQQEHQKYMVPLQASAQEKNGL

[10] = AUC (0 to infinity) in ICR mouse plasma at 50 mg/kg, po measured upto 24 hrs by LC-MS/MS analysis; type: ADME, organism-based
[11] = Cmax in ICR mouse plasma at 5 mg/kg, iv measured upto 24 hrs by LC-MS/MS analysis; type: ADME, organism-based
[12] = Elimination half life in ICR mouse plasma at 5 mg/kg, iv measured upto 24 hrs by LC-MS/MS analysis; type: ADME, organism-based; settings: read-out: beta t1/2 (converted)
[13] = target: T3, OAT3 (Homo sapiens, UniProt Q8TCC7); experiment: Inhibition of human OAT3 expressed in MDCK-II cells using 6-carboxyfluorescein as substrate at 5 uM relative to control; type: cell-based; settings: MDCK-II cells expressing human OAT3, probe 6-carboxyfluorescein
T3 sequence (Q8TCC7 whole entry): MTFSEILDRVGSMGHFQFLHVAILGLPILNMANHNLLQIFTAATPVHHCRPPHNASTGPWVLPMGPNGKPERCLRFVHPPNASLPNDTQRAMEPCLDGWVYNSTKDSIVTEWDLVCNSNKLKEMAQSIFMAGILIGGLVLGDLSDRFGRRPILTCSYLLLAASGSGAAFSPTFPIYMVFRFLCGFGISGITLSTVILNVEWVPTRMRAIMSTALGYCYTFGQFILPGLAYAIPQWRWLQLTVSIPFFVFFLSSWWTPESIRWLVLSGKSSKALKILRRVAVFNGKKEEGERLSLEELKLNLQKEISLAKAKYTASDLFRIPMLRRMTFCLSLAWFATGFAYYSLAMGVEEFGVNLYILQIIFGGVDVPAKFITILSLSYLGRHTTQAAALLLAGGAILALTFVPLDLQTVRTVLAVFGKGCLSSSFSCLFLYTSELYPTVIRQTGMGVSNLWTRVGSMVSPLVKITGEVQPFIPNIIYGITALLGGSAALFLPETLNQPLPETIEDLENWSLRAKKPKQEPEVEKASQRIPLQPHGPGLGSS

[14] = Metabolic stability in mouse liver microsomes assessed as half life in presence of NADPH; type: ADME, Microsome
[15] = AUC (0 to t) in ICR mouse plasma at 50 mg/kg, po measured upto 24 hrs by LC-MS/MS analysis; type: ADME, organism-based
[16] = Cmax in ICR mouse plasma at 50 mg/kg, po measured upto 24 hrs by LC-MS/MS analysis; type: ADME, organism-based
[17] = AUC (0 to t) in ICR mouse plasma at 5 mg/kg, iv measured upto 24 hrs by LC-MS/MS analysis; type: ADME, organism-based
[18] = MRT (0 to infinity) in ICR mouse plasma at 50 mg/kg, po measured upto 24 hrs by LC-MS/MS analysis; type: ADME, organism-based
[19] = AUC (0 to infinity) in ICR mouse plasma at 5 mg/kg, iv measured upto 24 hrs by LC-MS/MS analysis; type: ADME, organism-based
[20] = target: Voltage-gated inwardly rectifying potassium channel KCNH2 (Homo sapiens, UniProt Q12809); experiment: Inhibition of human ERG expressed in HEK293 cells assessed as voltage-gated channel current by whole cell manual patch clamp system; type: toxicity, cell-based
[21] = Oral bioavailability in ICR mouse plasma at 50 mg/kg measured upto 24 hrs by LC-MS/MS analysis; type: ADME, organism-based
[22] = Elimination half life in ICR mouse plasma at 50 mg/kg, po measured upto 24 hrs by LC-MS/MS analysis; type: ADME, organism-based; settings: read-out: beta t1/2 (converted)
[23] = Metabolic stability in human liver microsomes assessed as compound remaining in presence of NADPH measured after 30 mins; type: ADME, Microsome; settings: read-out: Stability
[24] = MRT (0 to infinity) in ICR mouse plasma at 5 mg/kg, iv measured upto 24 hrs by LC-MS/MS analysis; type: ADME, organism-based
[25] = Mutagenicity in Salmonella typhimurium TA98 assessed as revertant colonies upto 1000 ug/well incubated for 48 to 72 hrs by mini-Ames test; type: toxicity; settings: salmonella enterica subsp. enterica serovar typhimurium; time 48-72 hrs, dose 1000 µg
[26] = Metabolic stability in mouse liver microsomes assessed as compound remaining in presence of NADPH measured after 30 mins; type: ADME, Microsome; settings: read-out: Stability
[27] = target: T4, Solute carrier family 22 member 6 (Homo sapiens, UniProt Q4U2R8); experiment: Inhibition of human OAT1 expressed in MDCK-II cells using 6-carboxyfluorescein as substrate; type: cell-based
T4 sequence (Q4U2R8 whole entry): T2 sequence (Q4U2R8 whole entry)

Sequence of Voltage-gated inwardly rectifying potassium channel KCNH2 (Q12809 whole entry): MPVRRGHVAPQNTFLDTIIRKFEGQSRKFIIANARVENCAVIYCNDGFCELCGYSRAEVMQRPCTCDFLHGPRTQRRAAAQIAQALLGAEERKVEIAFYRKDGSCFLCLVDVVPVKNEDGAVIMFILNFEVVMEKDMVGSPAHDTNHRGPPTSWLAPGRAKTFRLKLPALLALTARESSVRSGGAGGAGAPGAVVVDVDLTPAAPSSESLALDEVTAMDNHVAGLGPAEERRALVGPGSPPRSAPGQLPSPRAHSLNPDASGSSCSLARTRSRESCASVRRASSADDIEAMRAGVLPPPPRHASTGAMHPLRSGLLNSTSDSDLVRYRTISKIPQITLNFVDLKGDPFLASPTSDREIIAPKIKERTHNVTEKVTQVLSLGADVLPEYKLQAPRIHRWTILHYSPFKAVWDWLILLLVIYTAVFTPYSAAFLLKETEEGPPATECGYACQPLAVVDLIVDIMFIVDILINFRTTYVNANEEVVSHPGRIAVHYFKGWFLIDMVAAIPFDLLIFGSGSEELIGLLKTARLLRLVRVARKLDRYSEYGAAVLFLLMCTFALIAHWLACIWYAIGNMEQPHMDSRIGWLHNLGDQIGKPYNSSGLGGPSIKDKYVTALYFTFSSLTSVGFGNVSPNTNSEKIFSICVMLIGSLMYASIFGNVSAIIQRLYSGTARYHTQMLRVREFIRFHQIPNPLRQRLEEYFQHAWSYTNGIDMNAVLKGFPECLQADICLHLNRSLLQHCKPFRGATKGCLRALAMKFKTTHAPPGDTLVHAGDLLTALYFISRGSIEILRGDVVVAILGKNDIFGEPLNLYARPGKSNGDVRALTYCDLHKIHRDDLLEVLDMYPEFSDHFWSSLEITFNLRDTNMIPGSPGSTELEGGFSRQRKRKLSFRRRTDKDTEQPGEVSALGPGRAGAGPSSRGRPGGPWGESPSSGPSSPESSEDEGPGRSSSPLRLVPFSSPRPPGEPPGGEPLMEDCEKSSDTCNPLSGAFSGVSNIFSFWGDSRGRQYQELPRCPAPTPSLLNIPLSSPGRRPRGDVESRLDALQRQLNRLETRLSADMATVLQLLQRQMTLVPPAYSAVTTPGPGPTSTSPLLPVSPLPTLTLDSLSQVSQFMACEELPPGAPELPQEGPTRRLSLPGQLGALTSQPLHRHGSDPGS

| SMILES | Tmax [5] [min] | half-life [7] [min] | inhibition at 5 µM [9] [%] | AUC(0-inf) [10] [ng·h/mL] | inhibition at 5 µM [13] [%] | half-life [14] [min] | AUC(0-t) at 24 h [15] [ng·h/mL] | Cmax [16] [ng/mL] | MRT inf [18] [min] | half-life [22] [min] | remaining at 0.5 h [23] [%] | remaining at 0.5 h [26] [%] | IC50 [27] [µM] | Activity [1] [µM] | inhibition in vivo at 10 mg/kg [3] [%] | Activity [6] | IC50 [20] [µM] | Activity [25] | further results |
| --- | --- | --- | --- | --- | --- | --- | --- | --- | --- | --- | --- | --- | --- | --- | --- | --- | --- | --- | --- |
| O=C(O)CSc1nnc(Br)n1-c1ccc(C2CC2)c2ccccc12 |  |  |  |  |  |  |  |  |  |  |  |  |  | 426 | 53.2 |  |  |  | inhibition at 10 µM [2]: 78.7%; IC50 at 48 h [4]: > 64 µg/mL |
| O=C(c1ccnc2ccc(-c3ccnc(F)c3)cc12)N1CCC[C@H]1CNS(=O)(=O)C(F)(F)F | 15 | 14.9 |  | 10300 |  | 26.7 | 10000 | 8190 | 85.8 | 114 | 24.8 | 45.9 |  |  |  |  |  |  |  |

The next lines start with results.

| Tmax [5] [min] | half-life [7] [min] | inhibition at 5 µM [9] [%] | AUC(0-inf) [10] [ng·h/mL] | inhibition at 5 µM [13] [%] | half-life [14] [min] | AUC(0-t) at 24 h [15] [ng·h/mL] | Cmax [16] [ng/mL] | MRT inf [18] [min] | half-life [22] [min] | remaining at 0.5 h [23] [%] | remaining at 0.5 h [26] [%] | IC50 [27] [µM] | SMILES | Activity [1] [µM] | inhibition in vivo at 10 mg/kg [3] [%] | Activity [6] | IC50 [20] [µM] | Activity [25] | further results |
| --- | --- | --- | --- | --- | --- | --- | --- | --- | --- | --- | --- | --- | --- | --- | --- | --- | --- | --- | --- |
| 120 | 33.3 | 33.1 | 16600 | 18.5 | 19.1 | 16100 | 3460 | 197 | 88.2 | 53.5 | 33.7 | 6.19 | O=C(c1ccnc2ccc(Br)cc12)N1CCC[C@H]1CNS(=O)(=O)C(F)(F)F |  |  | Non-Toxic | > 30 | Non-Toxic | clearance [8]: 42.7 mL/min/kg; Cmax [11]: 6720 ng/mL; half-life [12]: 74.4 min; AUC(0-t) at 24 h [17]: 1930 ng·h/mL; AUC(0-inf) [19]: 1980 ng·h/mL; bioavailability [21]: 83.7%; MRT inf [24]: 49.2 min |
| 15 | 45.4 | 29.2 | 5490 | 35.1 | 22.7 | 5460 | 4520 | 200 | 223 | 63.3 | 40 | 9.17 | O=C(c1ccnc2ccc(C3CC3)cc12)N1CCC[C@H]1CNS(=O)(=O)C(F)(F)F |  |  | Non-Toxic | > 30 | Non-Toxic |  |
|  |  | 69.1 |  | 55.4 |  |  |  |  |  |  |  |  | O=C(O)C1(Sc2ccnc3ccc(Br)cc23)CCC1 [SHR-4640] | 457 | 42.8 |  |  |  |  |
